The source of these data is ChEMBL document CHEMBL6092142, “Discovery and preclinical profile of YK-2168, a differentiated selective CDK9 inhibitor in clinical development” (Bioorg Med Chem Lett, 2024).

The nature of assay [1]: Selectivity index, ratio of IC50 for inhibition of CDK1 (unknown origin) to IC50 for inhibition of CDK9 (unknown origin).
Assay [2] is described as follows: Selectivity index, ratio of IC50 for inhibition of CDK2 (unknown origin) to IC50 for inhibition of CDK9 (unknown origin).
Assay [3] concerns MV4-11. The assay can be described thus: Antiproliferative activity against human MV4-11 cells assessed as cell viability. It is filed as functional, cell-based.

In the case of `COCC(C)N1CCC(c2cc3c(-c4cnn(CC5CC5)c4)c(Cl)cnc3[nH]2)CC1` (stereo unspecified), the Ratio IC50 was 107 in assay [1] and 41 in assay [2]. Moreover, in assay [3], the IC50 came to 52 nM.

On to `Clc1cnc2[nH]c(C3CCNCC3)cc2c1-c1cnn(CC2CC2)c1`, for which the Ratio IC50 in assay [1] was 11.5; in assay [2] it was 14.5. The IC50 in assay [3] came to 14.7 nM.
